The text below walks through data of patent US20200270216A1, “COMPOSITIONS AND METHODS FOR INHIBITING N-SMASE2” (The Regents of the University of California, priority 2017, published 2020).

Holding throughout (format): cell-based
Experiment [1] deals with HEK293T Tau RD P301S FRET biosensor cells. Description: EV-mediated tau transfer assay. On the procedure: For EV (extracellular vesicles)-mediated tau transfer assay, donor cells, transduced with AD-brain derived synaptosomal extracts (P2) or synthetic K18 seeds, were cultured for 48 hours in exosome-free medium with or without indicated concentration of tested compounds or DMSO for control, then medium was collected and EVs were purified using Exo-Quick-TC exosome purification kit (SBI, EXOTC10A-1) according to the manufacturing instructions. Naive recipient cells were plated at density 30,000 cells per well (96-well plates), grown for 12 hour in regular medium and then medium was exchanged to exosome-depleted medium, contained exosomes purified from donor cells (each well of recipients received amount of exosomes purified from one well of donor cells). Recipient cells were cultured in the presence of donor cell exosomes for 60 hrs. EV-mediated transfer assay scheme is presented at the FIG. 5A (right).
HEK293T Tau RD P301S FRET biosensor cells were growing in the Dulbecco's Modified Eagle's medium (DMEM) with higher glucose, 10% FBS, and 1% Penicillin-streptomycin at 37° C./5% CO2. Cells were plated in 10-sm dishes (3 million cells per dish in the regular medium) and grown for 12 hrs. Cells assigned to be donors were transduced with pulled synaptosomal (P2) extracts from AD cases using lipofectamine 2000, according to the published literature with minor modifications. We used 35 μg of pulled AD or control (NL) material per one 10-sm dish (TableS1). Defrosted P2 extracts were sonicated in water bath sonicator for 10 minutes, and diluted with Opti-MEM serum reduced medium to the final volume 200 μL per 10-sm dish. In a separate tube lipofectamine 2000 were combined with Opti-MEM medium, based on 25 μl of lipofectamine and 175 μL OptiMEM medium per each 10-sm dish, and incubated for 10 minutes at room temperature (RT). Each P2 or NL extract mix (200 μl) and prepared lipofectamine 2000 mix (200 μl) were combined and incubated for 20 min at RT. Each 10-sm dish with cell received 400 μl of the final liposomes in the total volume of medium 5 ml per dish. Cultures treated with equal amount of empty liposomes were used as an additional control group. Cells were incubated with liposomes for 20 hrs.
For “D+R” assay recipient cells were labeled with 1,1′-Dioctadecyl-3,3,3′,3′-tetramethylindodicarbocyanine (DiD) according to manufacturer's protocol (ThermoFisher V22887) on day 2. On day 3, donor cells were trypsinized (0.05% Trypsin/EDTA), washed with fresh exosome-free medium contained 10% of exosome-depleted FBS (ThermoFisher, A2720803). DiD-labeled recipient cells were also trypsinized and washed in exosome-free medium. […] FRET signal was detected using LSRII flow cytometer (BD biosciences). […]

In experiment [2] the test system is P2-seeded tau biosensor cells. Description: EV purification and characterization (immunoblot of exosome markers, nanoparticle tracking analysis). An excerpt:
Extracellular vesicles (EVs) were purified from the cell culture medium using Exo-Quick-TC exosome purification kit (SBI, EXOTC10A-1) according to the manufacturing instructions. Immunoblot analysis of the EV fractions was done by 10-20% Tris-Glycine gel in non-reduced conditions, transferred to PVDF membrane and probed with antibodies against CD63 (ThermoFisher, 10628D), followed by HRP-conjugated secondary antibodies. Chemiluminescent signals were obtained with Super Signal West Femto substrate (Thermo Scientific Pierce 34,095) and detected using a BioSpectrum 600 imaging system and quantified using VisionWorks Version 6.6A software (UVP; Upland, Calif.). […] Inhibition of nSMase2 activity in cell extracts of confluent tau biosensors was confirmed by nSMase2 activity assay analogous to the one described in Example 2.
Our analysis confirmed that nSMase2 inhibitors suppress release of EVs from P2-seeded tau biosensor cells. […] EV samples purified from the same number of donor cells were analyzed per each group. Purified EVs were imaged by transmission electron microscopy (FIG. 5C). Size distribution of particles in the samples were assessed by nanoparticle tracking analysis (FIG. 5D). WB analysis for exosome markers also confirmed decrease in the exosome-specific marker expression (FIG. 5E).
Donor cells were grown in medium with exosome-depleted FBS (ThermoFisher, A2720803) for 48 hours with or without compounds, cell culture medium was collected and EVs purified using ExoQuick-TC kit (SBI biosciences). For quality control, small amounts of purified EVs were fixed on a copper mesh in glutaraldehyde/paraformaldehyde solution, stained with 2% uranyl acetate solution and imaged on a JEOL 100CX electron microscope at 29,000 times magnification. […] Chemiluminescent signals were obtained with Super Signal West Femto substrate (Thermo Scientific Pierce 34095) and detected using a BioSpectrum 600 imaging system and quantified using VisionWorks Version 6.6A software (UVP; Upland, Calif.).
Background: A western blot detects proteins with antibodies after separation by electrophoresis.

Experiment [3] concerns HEK293T Tau RD P301S FRET biosensors. Description: P2-induced tau aggregation in Tau P301S FRET biosensors (microscopy, flow cytometry). An excerpt:
The tau biosensors were HEK293T cells, with stably expressed tau repeat domains with disease-associated mutation (P301S) fused to either CFP or YFP (HEK293T Tau RD P301S FRET biosensors) were transduced with pulled synaptosomal (P2) extracts from AD brains using lipofectamine 2000. Cultures treated with equal amount of empty liposomes were used as a control. […] Cells were imaged after 24 hrs using automated microscope imaging system (Lionheart FX) equipped with 20× objective and CFP-YFP FRET Image filter cube.
After sixty hours treatment, cells and cell medium were collected. Cells were prepared for flow cytometry and FRET signal was detected using LSRII flow cytometer (BD biosciences). Cells were back gated onto forward scatter versus side scatter to insure a single cell analysis, 5,000 cells were collected within the gate. FRET negative and FRET-positive cell populations were defined as previously described.
A general note: Flow cytometry measures light scatter and fluorescence of single cells or particles in a stream.

Molecules are shown by their SMILES. Entries after “also recorded” stand apart in the source; their conditions may differ.

With `O=c1[nH]c(=S)[nH]c(-c2ccccc2)c1Cc1c(O)ccc2ccccc12` [cambinol], the “EV-mediated transfer of tau to recipient cells” value in experiment [1] (P2-seeded donor cells treated at 50 μM, 48 hours) is given as “decrease; also recorded: more effective than the nSMase2 inhibitor GW4869”. In addition, in experiment [1] (inhibitor treatment of donor cells), the “reduction of EV-mediated transfer of tau seeds to naive recipient cells” value was determined as 8 times. In addition, the “levels of exosomal marker CD63 in cell medium EV fraction” value in experiment [2] (10 μM, 60 hours, Western blot (FIG. 3C)) is listed as “Decrease”. Also, the “release of EVs from P2-seeded donor cells” value in experiment [2] (50 μM, 48 hours, nanoparticle tracking analysis) is given as “released less EVs; also recorded: more effective than the nSMase2 inhibitor GW4869”. Further, the “FRET-positive tau aggregates, microscopy” value in experiment [3] (10 μM, imaged after 24 hrs, vs DMSO (FIG. 3A)) is on record as “visibly decreased; also recorded: Decrease in the tau aggregation”. Further, the “FRET-positive signal (integrated FRET density), flow cytometry” value in experiment [3] (10 uM, sixty hours treatment (FIG. 3B)) was “significant decrease”.
